Test results as given in US20260284087A1, “USES OF CANNABIDIOL (CBD) AND ADVANCED METABOLIC SYNDROME” (THE REGENTS OF THE UNIVERSITY OF CALIFORNIA, priority 2022, published 2026).

Assays:
[1] = system: Otsuka Long-Evans Tokushima Fatty (OLETF) rats; test: CBD effect on brown adipose tissue loss in OLETF rats with progressive MetS; format: in vivo, rat; conditions: 15-week-old OLETF rats, 200 mg CBD/kg oral gavage for 5 weeks; p<0.05; BAT estimated from 2-dimensional images (surface area)
Experimental: (§1) To assess the effects of a CBD on BAT loss associated with progressive MetS, a cohort of 15-week-old Otsuka Long-Evans Tokushima Fatty (OLETF) rats were administered 200 mg CBD/kg by oral gavage for 5 weeks. Animals were fed ad libitum and monitored in metabolic cages alongside vehicle-treated OLETF and lean strain control Long-Evans Tokushima Otsuka (LETO) rats. Brown adipose tissue content was estimated from 2-dimensional images to quantify surface area. The Otsuka Long-Evans Tokushima Fatty (OLETF) rat is a monogenic model of diet-induced obesity accelerated by a mutation in the CCK receptor. […] At >40 weeks of age, OLETF rats suffer from severe metabolic dysfunction and therefore serve as a model of aged, severe MetS.

[2] = system: Otsuka Long-Evans Tokushima Fatty (OLETF) rats; test: Plasma metabolomics in CBD-treated OLETF rats; format: in vivo, rat; conditions: OLETF vs. CBD, 200 mg CBD/kg oral gavage for 5 weeks, p<0.0001
Excerpt: FIGS. 2A-2C CBD increases BAIBA. A) Metabolomic map showing metabolites with p<0.05 after Student's t-test, representing mean plasma peak intensity fold-changes between groups in metabolites with q<0.2, for OLETF vs. CBD, B) top 5 metabolites, associated pathway and change directionality listed by lowest p-value for OLETF vs. CBD and C) raw mean peak area of BAIBA. *p<0.05 compared to LETO and †p<0.05 compared to OLETF by ANOVA with Tukey's HSD or student's t-test.
as §1

SMILES: C=C(C)[C@@H]1CCC(C)=C[C@H]1c1c(O)cc(CCCCC)cc1O [CBD, Cannabidiol]
- BAT masses preserved (of BAT lost in OLETF control) [1]: 55%
- increase in ß-aminoisobutyric acid (BAIBA) [2]: 2.1 fold
